Literature values in US12054562B2, “Cell-permeable inhibitory agent and methods of use thereof in treatment of cognitive and mood disorders” (priority 2015, dated 2024).

Experiments:
α5GABAA receptor [1] = molecular target: T1, α5GABAA receptor (Homo sapiens, UniProt P18507+P31644); conditions: cited from earlier work
T1 sequence (P31644 32-462): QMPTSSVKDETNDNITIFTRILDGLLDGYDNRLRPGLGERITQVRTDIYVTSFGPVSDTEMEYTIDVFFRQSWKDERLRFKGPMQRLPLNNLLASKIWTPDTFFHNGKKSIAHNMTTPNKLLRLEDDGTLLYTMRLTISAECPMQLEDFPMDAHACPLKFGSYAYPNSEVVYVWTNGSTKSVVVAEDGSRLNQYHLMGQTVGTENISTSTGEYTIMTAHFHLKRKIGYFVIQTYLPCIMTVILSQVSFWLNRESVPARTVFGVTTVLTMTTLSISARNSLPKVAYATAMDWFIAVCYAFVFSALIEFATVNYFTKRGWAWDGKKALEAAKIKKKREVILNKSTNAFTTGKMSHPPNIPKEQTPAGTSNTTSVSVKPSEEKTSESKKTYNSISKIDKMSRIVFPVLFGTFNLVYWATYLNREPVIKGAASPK
T1 sequence (P18507 40-467 limits assumed): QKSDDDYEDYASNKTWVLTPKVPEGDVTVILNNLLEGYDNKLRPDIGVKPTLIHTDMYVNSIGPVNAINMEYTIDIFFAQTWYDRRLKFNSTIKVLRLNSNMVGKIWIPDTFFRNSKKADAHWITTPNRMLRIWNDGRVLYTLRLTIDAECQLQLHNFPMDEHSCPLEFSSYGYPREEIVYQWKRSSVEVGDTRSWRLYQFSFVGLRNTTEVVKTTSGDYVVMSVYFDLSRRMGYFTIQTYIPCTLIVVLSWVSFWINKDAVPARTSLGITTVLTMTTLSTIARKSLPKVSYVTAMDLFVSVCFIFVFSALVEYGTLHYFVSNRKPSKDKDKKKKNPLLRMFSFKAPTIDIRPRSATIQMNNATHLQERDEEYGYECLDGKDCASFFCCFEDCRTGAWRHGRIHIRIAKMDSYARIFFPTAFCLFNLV
T1 sequence (P28472 26-473 partner): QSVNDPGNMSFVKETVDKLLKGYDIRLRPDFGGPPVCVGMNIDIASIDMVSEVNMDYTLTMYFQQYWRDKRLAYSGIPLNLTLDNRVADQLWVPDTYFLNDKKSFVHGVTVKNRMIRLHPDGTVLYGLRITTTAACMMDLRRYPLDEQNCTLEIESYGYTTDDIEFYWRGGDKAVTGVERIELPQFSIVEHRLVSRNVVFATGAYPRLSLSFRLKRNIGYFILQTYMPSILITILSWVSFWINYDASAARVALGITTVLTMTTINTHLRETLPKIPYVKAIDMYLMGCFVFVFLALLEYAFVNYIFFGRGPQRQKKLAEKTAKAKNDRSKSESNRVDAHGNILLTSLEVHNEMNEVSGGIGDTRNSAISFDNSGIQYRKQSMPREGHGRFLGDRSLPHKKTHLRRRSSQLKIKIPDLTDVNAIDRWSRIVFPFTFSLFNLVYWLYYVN

α5GABAA receptor [2] = molecular target: T1, α5GABAA receptor; conditions: cited from earlier work; remark: listed apart in the source
healthy subjects = conditions: cited from earlier work
[3] = molecular target: T2, al subunit-containing GABAA receptors (Homo sapiens, UniProt P14867+P18507); conditions: at high concentrations; cited from earlier work
T2 sequence (P14867 28-456): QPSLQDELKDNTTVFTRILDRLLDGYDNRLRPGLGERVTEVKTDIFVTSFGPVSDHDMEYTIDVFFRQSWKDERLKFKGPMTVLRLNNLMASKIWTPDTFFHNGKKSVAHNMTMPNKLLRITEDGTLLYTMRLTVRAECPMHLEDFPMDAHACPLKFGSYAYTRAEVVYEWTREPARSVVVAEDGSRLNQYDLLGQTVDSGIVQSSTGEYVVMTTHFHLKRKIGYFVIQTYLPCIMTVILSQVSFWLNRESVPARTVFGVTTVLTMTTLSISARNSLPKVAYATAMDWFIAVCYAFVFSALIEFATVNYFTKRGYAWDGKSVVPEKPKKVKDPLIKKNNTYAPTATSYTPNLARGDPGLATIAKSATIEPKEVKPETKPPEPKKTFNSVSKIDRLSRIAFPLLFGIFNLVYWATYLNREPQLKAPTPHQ
T2 sequence (P18507 40-467 limits assumed): T1 sequence (P18507 40-467 limits assumed)
T2 sequence (P28472 26-473 partner): T1 sequence (P28472 26-473 partner)

patients = conditions: cited from earlier work

Row | SMILES | selectivity for α5GABAA receptors (α5GABAA receptor [1]) | efficacy for reducing α5GABAA receptor function (α5GABAA receptor [2]) | ethanol-induced impaired performance (healthy subjects) | action on al subunit-containing GABAA receptors [3] | reason clinical trial was stopped (patients)
1 | CCOC(=O)c1ncn2c1[C@@H]1CCCN1C(=O)c1cc(OC)ccc1-2 [L-655,708] | 30-70 fold | relatively low efficacy |  |  | 
2 | Cc1cc(-c2nnc3c4ccccc4c(OCc4cn(C)nn4)nn23)no1 [α5IA] |  |  | improves | activates | renal toxicity
